# Measurements published in US6384029B1, “Optically active pyridyl-4h-1,2,4-oxdadiazine derivative and its use in the treatment of vascular diseases” (Biorex Kutató Fejlesztö RT., priority 1998, dated 2002).
# Marks after values point to notes of the source that are not given here.
# What was measured:
# [1] = test system: rabbit papillary muscle; experiment: Contractile force of heart: rabbit right ventricular papillary muscle; settings: for amplitude % (contractile force, % of control): cumulative addition, 15-20 min incubation; for inotropic effect (in words): between 10^−6 and 10^−4 molar range
# Source text: Effect of racemic 5,6-dihydro-5-(1-piperidinyl)-methyl-3-(3-pyridyl)4H-1,2,4-oxadiazine and its (−) and (+) enantiomers on the contractile force of heart
# New Zealand white rabbits (male, 2-3 kg) were killed by a blow on the nape. The hearts were rapidly removed after opening the chest. Right ventricular papillary muscles were dissected and mounted in organ holding chambers and pre-tension of 0.5 g was applied. The superfusate contained (in mM) 120 NaCl, 5.4 KCl, 2.7 CaCl2, 1.1 MgCl2, 1.1 NaH2PO4, 24.0 NaHCO3 and 11.0 glucose. The pH of this superfusate was 7.4 at 37° C. when gassed with 95% O2 and 5% CO2. Stimulation and measurements were carried out by Isosys System of Experimetria, Budapest, Hungary. The preparations were paced by 1-ms-wide isolated constant voltage at a cycle length of 1000 ms. The amplitudes of the pulses were equal to twice as high as the diastolic threshold value, delivered through a pair of platinum electrodes. Before the start of the measurements the preparation was equilibrated for 60 min to allow the stabilization of its mechanical parameters. The drugs were added to the organ bath cumulatively, without washing out. Period of the incubation was 15-20 min. Measured parameters were: resting force (mg) and changes in the amplitude of contractile force (mg) which was expressed in % of the control.
# [2] = test system: spontaneously hypertensive rats; experiment: Myocardial infarction in spontaneously hypertensive rats (coronary occlusion/reperfusion); format: in vivo, rat; settings: SH rats; for Survival (%) / Infarcted area (%): oral 6 hours before occlusion (100 mg/kg), 1 h occlusion, 1 h reperfusion; for Infarcted area (%): percentage of left ventricle
# Description: Myocardial Infarction in Spontaneously Hypertensive Rats
# Myocardial ischemia was induced by a temporary occlusion of the main left coronary artery, according to Griswold et al (J. Pharmacol. Methods 1988, 20: 225-235). SH rats were anaesthetized with sodium pentobarbital (60 mg/kg i.p.). After tracheotomy, the animals were ventilated with room air by a respirator for small rodents (model: Harvard 552), with a stroke volume of 1,5-2 ml/100 g and a rate of 55 strokes/min to maintain normal pO2, pCO2 and pH parameters. The right carotid artery was catheterized and connected to a pressure transducer (P236B Stetham) for the measurement of systemic arterial blood pressure (BP) by means of a preamplifier (Hg-O2D Experimetria®). Heart rate (HR) was measured by a cardiotachometer (HR-01, Experimetria®). The electrocardiogram (ECG standard lead III) was recorded on a devices recorder (ER- 14, Micromed®) by means of subcutaneous steel needle electrodes. The chest was opened by a left thoracotomy and the heart was exteriorized by a gentle pressure on the right side of the rib cage. A 4/0 silk ligature was quickly placed under the main left coronary artery. The heart was replaced in the chest and the animal left to recover. Rectal temperature was monitored and was maintained constant at 37° C. The experiment was initiated with a 15 min stabilization period during which the observation of a sustained blood pressure less than 70 mmHg and/or the occurrence of arrhythmias lead to exclusion. Myocardial ischemia was induced with coronary artery occlusion for 1 h and reperfusion allowed for 1 hour. The drugs were administered orally 6 hours before occlusion.
# Quantification of Myocardial Infarction
# At the end of experiment, the heart was quickly removed. The left ventricle was then sliced into 2 mm thick sections parallel to the atrioventricular groove. The slices were incubated in a 0.1% solution of p-Nitroblue Tetrazolium (NBT) grade III, pH 7,4 for 15 min. The non-infarcted area was colored blue due to formation of a precipitate that results from reaction of NBT with dehydrogenase enzymes. Loss of these enzymes in the infarcted myocardium prevents the formation of the precipitate; thus, the infarcted area within the risk region remains pale yellow. The necrotic area was determined using computerized image analysis (COLIM, Pictron Kft), and was expressed as a percentage of the left ventricle.
# [3] = test system: coronary flow responses to serotonin (5-HT) in hearts from spontaneously hypertensive (SH) rats; experiment: Langendorff perfused rat heart: endothelial function before and after ischemia; settings: for postischemic coronary response in percentage of the preischemic vasodilator response: 10^−6 M drug in perfusate, 10^−7 M 5-HT, 10 min global ischemia, SH rat heart
# Description: Langendorff Perfused Rat Heart
# Protocol for Assesment of Endothelial Function Before and After Ischemia
# Rats were heparinised with i.p. heparin sodium (2500 IU) and anesthetized with i.p. pentobarbital (60 mg/kg). Hearts from spontaneously hypertensive (SH) rats were quickly removed and immediately perfused via the aorta using a gravity-flow, non-recirculating Langendorff apparatus (Experimetria Ltd) at a constant perfusion pressure (100 cm H2O) with Krebs-Henseleit Solution (KHS) containing in mM: NaCl 120; KCl 5.4; CaCl2 2.7; MgCl2 1.1; NaHCO3 24; D-glucose 11. The KHS was gassed with carbogen (95% O2; 5% CO2) resulting pH 7.4.
# We used the so-called non-working heart model and measured the mean coronary flow by a transonic flow meter (Type T206, Transonic Systems Inc.). The flow probe was placed above the aortic cannula. Coronary flow was monitored throughout the experiment and registered by a potentiometric recorder. Hearts were allowed to beat spontaneously throughout the experiment. After 20-30 min of equilibration period the coronary flow reached a baseline value.
# Endothelial function was assessed through observations of preischemic and postischemic coronary flow responses to serotonin (5-HT). In response to serotonin, the progress of dilatation of coronary artery depends on the soundness of the endothelium.
# The Langendorff infusion was switched to the another column containing additional 10^−7 M serotonin (5-HT, Sigma Chemical Co.). The ensuing dilatation of coronary artery was monitored and when the steady state had been reached the 5-HT was washed out by switching back to the ordinary KHS. The heart was then subjected to a global ischemia for 10 min by the clamping the aortic cannula. At the end of the ischemic period, the heart was reperfused. When the baseline coronary flow had been reestablished, the heart was again subjected to the same protocol of sequential infusion of 5-HT and KHS as in the preischemic period. Control hearts were perfused with pure KHS and the hearts of the another three groups were perfused with KHS containing additional 10^−6 M racemic 5,6-dihydro-5-(1-piperidinyl)-methyl-3-(3-pyridyl)4H-1,2,4-oxadiazine, (−)-5,6-dihydro-5-(1-piperidinyl)-methyl-3-(3-pyridyl)4H-1,2,4-oxadiazine and (+)-5,6-dihydro-5-(1-piperidinyl)-methyl-3-(3-pyridyl)4H-1,2,4-oxadiazine, respectively. 20-30 min after the onset of hemodynamic stability, perfusion of the drugs were initiated and continued until reperfusion with the exception of the occlusion period.
# The potischemic coronary responses are expressed in percentage of the preischemic vasodilator responses.
# [4] = acute single oral 100 mg/kg 6 hours before occlusion
smiles,measurement,setting,value
"c1cncc(C2=NOCC(CN3CCCCC3)N2)c1 (racemic) [racemic compound, 5,6-dihydro-5-(1-piperidinyl)-methyl-3-(3-pyridyl)4H-1,2,4-oxadiazine, reference compound]","amplitude % (contractile force, % of control)",[1]; 10^−4 M,83.7 ± 3.3 %
same,"amplitude % (contractile force, % of control)",[1]; 10^−5 M,87.1 ± 3.5 %
same,"amplitude % (contractile force, % of control)",[1]; 10^−6 M,92.6 ± 5.08%
same,inotropic effect (in words),[1],negative inotropic effect
same,Survival (%),[2],70.0%
same,Infarcted area (%),[2],27.2 ± 5.8 %
same,postischemic coronary response in percentage of the preischemic vasodilator response,[3],63.08 ± 11.7%
"c1cncc(C2=NOCC(CN3CCCCC3)N2)c1 (single isomer, unassigned; (+)) [(+) enantiomer, (+)-5,6-dihydro-5-(1-piperidinyl)-methyl-3-(3-pyridyl)4H-1,2,4-oxadiazine]","amplitude % (contractile force, % of control)",[1]; 10^−4 M,78.4 ± 5.0 %
same,"amplitude % (contractile force, % of control)",[1]; 10^−5 M,79.5 ± 5.6 %
same,"amplitude % (contractile force, % of control)",[1]; 10^−6 M,90.1 ± 3.5%
same,inotropic effect (in words),[1],negative inotropic effect
same,Survival (%),[2],75.0%
same,Infarcted area (%),[2],34.5 ± 4.6%
same,postischemic coronary response in percentage of the preischemic vasodilator response,[3],49.78 ± 9.9%
"c1cncc(C2=NOCC(CN3CCCCC3)N2)c1 (single isomer, unassigned; (-)) [(−) enantiomer, (−)-5,6-dihydro-5-(1-piperidinyl)-methyl-3-(3-pyridyl)4H-1,2,4-oxadiazine]","amplitude % (contractile force, % of control)",[1]; 10^−4 M,142.5 ± 4.8 %
same,"amplitude % (contractile force, % of control)",[1]; 10^−5 M,132.8 ± 5.0 %
same,"amplitude % (contractile force, % of control)",[1]; 10^−6 M,126.6 ± 5.3 %
same,inotropic effect (in words),[1],positive inotropic effect
same,myocardial infarct size (in words),[2]; [4],significantly reduced myocardial infarct size
same,survival rate (in words),[2]; [4],increased survival rate
same,Survival (%),[2],100.0** %
same,Infarcted area (%),[2],7.1 ± 2.5 %
same,postischemic coronary response in percentage of the preischemic vasodilator response,[3],88.41 ± 10.9%
same,endothelial function after ischemia (in words),"[3]; 10^−6 M, 10 min of global ischemia",preserved endothelial function
